Source: US12070472B2, “Treatment of drug resistant proliferative diseases with telomerase mediated telomere altering compounds” (The Board of Regents of the University of Texas System, priority 2016, dated 2024)

Columns and labels:
BJ cells = experiment: Telomere dysfunction induced foci (TIF) assay in normal BJ cells; assay type: cell-based, human; settings: 10 μM, after 48 hours
Method: TIFs were quantified using Imaris software.
Normal BJ cells and […] BJ-hTERT cells were seeded in chamber slides. Following cell attachment, 6-thio-dG (10 μM) and 6-thio-G (10 μM) were added to fresh medium of each cell type. […] A control was used for each cell type as well, where DMSO was added to fresh medium of each cell type. […] These include almost all human cancer cells and certain human diseases involving acute and chronic inflammation.

HCT116 = experiment: GI 50 determination, HCT116; assay type: cell-based; settings: Homo sapiens, HCT-116
Method: (§1) Cells of each type listed in Table 2 were seeded in chamber slides.

HCC15 = experiment: GI 50 determination, HCC15; assay type: cell-based; settings: Homo sapiens
Method: as §1

H2087 = experiment: GI 50 determination, H2087; assay type: cell-based; settings: Homo sapiens, NCI-H2087
Method: as §1

HCC4017 = experiment: GI 50 determination, HCC4017; assay type: cell-based; settings: Homo sapiens
Method: as §1

HCC515 = experiment: GI 50 determination, HCC515; assay type: cell-based; settings: Homo sapiens
Method: as §1

H2009 = experiment: GI 50 determination, H2009; assay type: cell-based; settings: Homo sapiens, NCI-H2009
Method: as §1

HCT116 cells [1] = settings: 3 μM twice during one week
Method: Cancer HCT116 and normal BJ fibroblast cells were treated with 6-thio-dG (3 μM) and 6-thio-G (3 μM) twice during one week. Following one week of the treatment, cell morphology was monitored, and then the cells were collected and counted.

BJ fibroblast cells = experiment: Cell morphology and cell count after one week, BJ fibroblasts; assay type: cell-based, human; settings: normal BJ fibroblasts; 3 μM twice during one week
HCT116 cells [2] = tested on: HCT116 cells
Method: For long-term cellular experiments, HCT116 (1,000 cells/cm^2) and BJ (10,000 cells/cm^2) cells were fed with 6-thio-dG (1, 3, 10 μM) containing medium every three days. The cells were counted and replated every week for 10-16 weeks. Additionally, HCT116 cells (1,000 cells/cm^2) were fed with 6-thio-G (1, 3, 10 μM) every three days and each week cells were counted, collected for TRF (Telomere Restriction Fragment) analysis and replated. HCT116 cells, following treatment with 10 μM 6-thio-dG for 12 weeks, were then treated with a combination of 10 μM 6-thio-dG and 3 μM GRN163L for 2-4 weeks.

[3] = tested on: HCEC1 normal colonic cell line; experiment: CellTitreGlo survival, 7 days, HCEC1; assay type: cell-based; settings: Homo sapiens, 168 h
Method: Four different cell lines were treated with nine different doses of 6-thio-dG for 7 days. HCT116 colon cancer cell line (FIG. 9A), HCEC1 normal colonic cell line (FIG. 9C), A549 non-small cell lung cancer cell line (FIG. 9B), and BJ normal fibroblast cell line (FIG. 9D) were each treated. Survival fraction was measured by CellTitreGlo luminescent cell viability assay (Promega).

H1993 = experiment: NSCLC panel sensitivity to 6-thio-dG, H1993; assay type: cell-based, human
Method: (§2) A panel of NSCLC cell lines was tested for sensitivity to 6-thio-dG by performing a cell count after 1 week treatment. Briefly, cells were treated with 3 μM 6-thio-dG every three days for 1 week. Viable cells were counted at the end of treatment. Each 6-thiodG treated cell line was normalized to its DMSO treated control.
(§3) Two isogenic pairs of NSCLC cell lines were studied for sensitization to 6-thio-dG treatment.

H2086 = experiment: NSCLC panel sensitivity to 6-thio-dG, H2086; assay type: cell-based, human; settings: 3 μM every three days for 1 week, normalized to DMSO control
Method: as §2, with “control. The results of the cell count are depicted in FIG. 12, with the various cell lines arranged in descending resistance to 6-thio-dG from left to right. […] The IC50 values for the whole panel of tested cells are depicted in FIG. 13. The IC50 values for tested cells are depicted as a column scatter graph in FIG. 14.” for “control.”

H1819 [4] = experiment: NSCLC panel sensitivity to 6-thio-dG, H1819; assay type: cell-based, human
Method: as §2, §3

H2126 = experiment: NSCLC panel sensitivity to 6-thio-dG, H2126; assay type: cell-based; settings: Homo sapiens, NCI-H2126
Method: as §2, with “control. The results of the cell count are depicted in FIG. 12, with the various cell lines arranged in descending resistance to 6-thio-dG from left to right. […] The IC50 values for the whole panel of tested cells are depicted in FIG. 13. The IC50 values for tested cells are depicted as a column scatter graph in FIG. 14.” for “control.”

H1993 cells = experiment: Sensitization by 5-azacytidine pretreatment, H1993; assay type: cell-based, human; settings: Homo sapiens, NCI-H1993, 500 nM 5-azacytidine one week, then 6-thio-dG one week, read-out: IC50 of 6-thio-dG after 5-azacytidine pretreatment
Method: All three resistant cell lines were pre-treated with 500 nM of the demethylating agent 5-azacytidine for one week. Following the 5-azacytidine pretreatment, each resistant cell line was treated with 9 different concentrations (0.01 to 1000 micromolar) of 6-thio-dG for one week. Cells were then evaluation for growth/death.

[5] = tested on: paclitaxel/carboplatin resistant H1355; experiment: 6-thio-dG on paclitaxel/carboplatin resistant H1355, cell count; assay type: cell-based, human; settings: 1, 3, 10 μM every three days for one week
Method: A cell count was performed to measure cell growth/death.

HCT116 sub clones = experiment: 6-thio-dG on HCT116 sub clone cell lines, cell count; assay type: cell-based, human; settings: for sensitivity (cell count): 3 μM for 4 weeks
Method: In a separate experiment, 31 sub clone cell lines were derived from HCT116 cells that had no prior treatment with 6-thio-dG. […] At the end of one week, a cell count was performed of treated cells and cell percentage calculated relative to control cell count (FIG. 22). […] Four of the sub clone cell lines were further studied for resistance to 6-thio-dG. […] HCT116 Control group represent the main population treated with DMSO:water for 1-4 weeks. At the end of 4 weeks a cell count was performed to quantify cell growth. […] (FIG. 23)

H1693 = experiment: 6-thio-dG on H1693 parental and paclitaxel/carboplatin resistant lines; assay type: cell-based, human; settings: 1, 3, 10 μM
Method: (§4) The resulting resistant lines and their parents were tested for the effect of 6-thio-dG at 1, 3, and 10 μM concentrations.

H1819 [6] = experiment: 6-thio-dG on H1819 parental and paclitaxel/carboplatin resistant lines; assay type: cell-based, human; settings: 1, 3, 10 μM
Method: as §4

Nc1nc2c(ncn2[C@H]2C[C@H](O)[C@@H](CO)O2)c(=S)[nH]1 [6-thio-dG, 6-thio-2′-deoxyguanosine]
>4 TIFs per nucleus background subtracted (BJ cells): 2 | GI50 (HCT116): 1000 nM | GI50 (HCC15): 800 nM | GI50 (H2087): 900 nM | GI50 (HCC4017): 900 nM | GI50 (HCC515): 2400 nM | GI50 (H2009): 2600 nM | cell death / cell count (HCT116 cells [1]): death of the vast majority of HCT116 cells | morphology and cell counts (BJ fibroblast cells): only slightly affected | telomere shortening (TRF) (HCT116 cells [2]; 1 μM or 10 μM every 3 days, 12 weeks): dramatic telomere shortening | telomere length on continued treatment (TRF) (HCT116 cells [2]; 10 μM 6-thio-dG for 12 weeks, continued to 16 weeks): exhibited stablized telomeres | acquisition of resistance (cell growth) (HCT116 cells [2]; 1, 3, 10 μM, weekly over 10 weeks): begin to acquire resistance to the treatment by the third week | telomere length after drug removal (TRF) (HCT116 cells [2]; 12 weeks 6-thio-dG, then normal medium without drug 2-4 weeks): remained about the same as after 12 week of 6-thio-dG treatment | IC50 [3]: > 100000 nM | survival rate (H1993; H1993, 3 μM every three days for 1 week, normalized to DMSO control): greater than 50% | IC50 (H1993; Homo sapiens, NCI-H1993): > 100000 nM | survival rate (H2086): greater than 50% | survival rate (H1819 [4]; H1819, 3 μM every three days for 1 week, normalized to DMSO control): greater than 50% | IC50 (H1819 [4]; Homo sapiens, NCI-H1819): > 100000 nM | IC50 (H2126): 3000 to 7000 nM | IC50 (H1993 cells): ~4100 nM | sensitivity (cell count) [5]: sensitive to all three concentrations | sensitivity (cell count) (HCT116 sub clones; HCT116 clone #5): remained sensitive for the duration of the experiment | sensitivity (cell count relative to control) (HCT116 sub clones; HCT116 clone #8, 3 μM every three days for one week): became intrinsically resistant to 6-thio-dG treatment | sensitivity (cell count) (HCT116 sub clones; HCT116 clone #8): maintained resistance for the duration of the treatment | sensitivity (cell count) (HCT116 sub clones; HCT116 clone #15): remained sensitive for the duration of the experiment | sensitivity (cell count) (HCT116 sub clones; HCT116 sub clone #31): acquired resistance and by week 4 showed cell growth indistinguishable from controls | sensitivity (H1693): resistant to 6-thio-dG | sensitivity (H1819 [6]): resistant to 6-thio-dG
